{
  "source": "ChEMBL document CHEMBL5365478",
  "about": "“Structure-Based Design and Synthesis of Stapled 10Panx1 Analogues for Use in Cardiovascular Inflammatory Diseases” (J Med Chem, 2023)",
  "key": {"[1]": {"target": "Pannexin-1 (Mus musculus) (UniProt Q9JIP4)", "sequence (Q9JIP4 whole entry)": "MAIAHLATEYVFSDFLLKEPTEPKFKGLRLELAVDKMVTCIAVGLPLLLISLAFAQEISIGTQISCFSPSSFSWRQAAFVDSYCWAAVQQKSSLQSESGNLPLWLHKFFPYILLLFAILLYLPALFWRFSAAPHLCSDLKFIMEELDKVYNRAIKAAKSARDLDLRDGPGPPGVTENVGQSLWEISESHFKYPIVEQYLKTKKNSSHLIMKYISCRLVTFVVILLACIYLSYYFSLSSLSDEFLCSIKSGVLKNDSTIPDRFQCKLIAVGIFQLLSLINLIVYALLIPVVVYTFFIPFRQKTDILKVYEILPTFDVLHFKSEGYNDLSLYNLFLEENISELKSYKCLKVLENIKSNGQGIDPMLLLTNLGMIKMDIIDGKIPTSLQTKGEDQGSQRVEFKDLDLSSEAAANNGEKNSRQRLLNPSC", "assay": "Inhibition of PANX1 in mouse B16-BL6 cells assessed as reduction in HOS-induced ATP release at 100 uM preincubated for 10 mins followed by HOS solution addition and measured after 30 mins by bioluminescence analysis relative to control", "format": "cell-based", "settings": "time 40.0 min"}, "[2]": {"target": "Pannexin-1 (Mus musculus) (UniProt Q9JIP4)", "assay": "Inhibition of PANX1 in mouse B16-BL6 cells assessed as reduction in HOS-induced ATP release at 12.5 uM preincubated for 10 mins followed by HOS solution addition and measured after 30 mins by bioluminescence analysis", "format": "cell-based", "settings": "time 40.0 min"}, "[3]": {"system": "B16-BL6", "assay": "Cytotoxicity against mouse B16-BL6 cells at 12.5 to 100 uM incubated for 30 mins with compound in HOS solution by LDH assay", "format": "toxicity, cell-based", "settings": "b16-bl6, 0.5 h, dose 12.5-100 µM"}, "[4]": {"system": "EA.hy 926", "assay": "Cytotoxicity against human EA.hy 926 cells at 12.5 to 100 uM incubated for 30 mins with compound in HOS solution by LDH assay", "format": "toxicity, cell-based", "settings": "ea.hy 926, 0.5 h, dose 12.5-100 µM"}, "[5]": {"assay": "Stability in human plasma assessed as intact parent compound level measured after 24 hrs by LC-MS analysis", "format": "ADME, cell-free", "settings": "read-out: Stability"}, "[6]": {"target": "Pannexin-1 (Homo sapiens) (UniProt Q96RD7)", "sequence (Q96RD7 whole entry)": "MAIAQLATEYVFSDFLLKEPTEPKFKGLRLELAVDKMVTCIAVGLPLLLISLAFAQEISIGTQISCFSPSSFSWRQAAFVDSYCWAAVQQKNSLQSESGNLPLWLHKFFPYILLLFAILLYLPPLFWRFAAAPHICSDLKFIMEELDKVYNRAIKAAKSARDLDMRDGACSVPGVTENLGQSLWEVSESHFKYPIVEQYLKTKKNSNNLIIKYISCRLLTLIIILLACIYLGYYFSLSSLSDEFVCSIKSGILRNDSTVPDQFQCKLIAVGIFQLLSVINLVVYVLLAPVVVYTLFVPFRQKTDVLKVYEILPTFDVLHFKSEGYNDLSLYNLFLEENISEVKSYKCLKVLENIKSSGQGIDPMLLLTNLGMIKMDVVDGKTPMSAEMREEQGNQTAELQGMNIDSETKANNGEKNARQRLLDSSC", "assay": "Inhibition of PANX1 in human EA.hy 926 cells assessed as reduction in HOS-induced ATP release at 12.5 uM preincubated for 10 mins followed by HOS solution addition and measured after 30 mins by bioluminescence analysis relative to control", "format": "cell-based", "settings": "time 40.0 min"}, "[7]": {"system": "EA.hy 926", "assay": "Antiinflammatory activity in TNF-alpha stimulated human EA.hy926 cells cocultured with human THP-1 cells assessed as inhibition of monocyte adhesion at 12.5 uM incubated for 15 mins followed by adhesion for 2 hrs", "format": "functional, cell-based", "settings": "time 135.0 min"}, "[8]": {"assay": "Stability in human plasma assessed as half life at 1.2 mM incubated for 30 mins by LC-MS analysis", "format": "ADME, cell-free"}, "[9]": {"target": "Pannexin-1 (Mus musculus) (UniProt Q9JIP4)", "assay": "Inhibition of PANX1 in mouse B16-BL6 cells assessed as reduction in HOS-induced ATP release preincubated for 10 mins followed by HOS solution addition and measured after 30 mins by bioluminescence analysis", "format": "cell-based", "settings": "dose 6.25-400 µM, time 40.0 min"}, "[10]": {"target": "Pannexin-1 (Mus musculus) (UniProt Q9JIP4)", "assay": "Inhibition of PANX1 in mouse B16-BL6 cells assessed as reduction in HOS-induced Yo-Pro-1 uptake by measuring reduction in green fluorescence at 100 uM preincubated for 10 mins followed by HOS solution addition and measured after 30 mins by fluorescence based analysis relative to control", "format": "cell-based", "settings": "time 40.0 min"}, "[11]": {"target": "Pannexin-1 (Mus musculus) (UniProt Q9JIP4)", "assay": "Inhibition of PANX1 in mouse B16-BL6 cells assessed as reduction in HOS-induced Yo-Pro-1 uptake by measuring reduction in green fluorescence at 12.5 uM preincubated for 10 mins followed by HOS solution addition and measured after 30 mins by fluorescence based analysis", "format": "cell-based", "settings": "time 40.0 min"}, "[12]": {"system": "B16-BL6", "assay": "Cytotoxicity against mouse B16-BL6 cells at 6.25 to 100 uM incubated for 30 mins with compound in HOS solution by LDH assay", "format": "toxicity, cell-based", "settings": "b16-bl6, 0.5 h, dose 6.25-100 µM"}, "[13]": {"target": "Pannexin-1 (Rattus norvegicus) (UniProt P60570)", "sequence (P60570 whole entry)": "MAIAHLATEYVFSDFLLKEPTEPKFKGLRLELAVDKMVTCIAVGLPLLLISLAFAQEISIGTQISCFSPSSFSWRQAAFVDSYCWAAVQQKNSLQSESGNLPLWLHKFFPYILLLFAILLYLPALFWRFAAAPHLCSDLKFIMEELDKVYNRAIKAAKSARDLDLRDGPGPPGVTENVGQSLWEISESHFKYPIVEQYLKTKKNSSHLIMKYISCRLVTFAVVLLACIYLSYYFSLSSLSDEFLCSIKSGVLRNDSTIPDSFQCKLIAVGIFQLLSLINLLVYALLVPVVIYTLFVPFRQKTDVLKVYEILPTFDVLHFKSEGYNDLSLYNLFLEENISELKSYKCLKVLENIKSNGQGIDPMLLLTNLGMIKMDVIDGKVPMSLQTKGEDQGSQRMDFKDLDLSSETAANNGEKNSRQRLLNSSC", "assay": "Inhibition of PANX1 in rat H9C2 cells assessed as reduction in HOS-induced ATP release at 12.5 to 100 uM preincubated for 10 mins followed by HOS solution addition and measured after 30 mins by bioluminescence analysis", "format": "cell-based", "settings": "dose 12.5-100 µM, time 40.0 min"}, "[14]": {"target": "Pannexin-1 (Homo sapiens) (UniProt Q96RD7)", "assay": "Inhibition of PANX1 in human EA.hy 926 cells assessed as reduction in HOS-induced ATP release at 100 uM preincubated for 10 mins followed by HOS solution addition and measured after 30 mins by bioluminescence analysis", "format": "cell-based", "settings": "time 40.0 min"}, "[15]": {"system": "EA.hy 926", "assay": "Antiinflammatory activity in TNF-alpha stimulated human EA.hy926 cells cocultured with human THP-1 cells assessed as inhibition of monocyte adhesion at 100 uM incubated for 15 mins followed by adhesion for 2 hrs relative to control", "format": "functional", "settings": "EA.hy 926, 2.25 h, time 135 min"}},
  "note": "Calls of active or inactive are those of the source. The calls are words filed in the database; no cut-off is given here. Bridge positions count the residues as written; N and C are the ends. Square brackets hold non-standard residues; d marks the D form. Triazole bridges read from a SMILES are 1,4-linked. Peptide text beside a SMILES is read from it. Lys(N3) = [N-]=[N+]=NCCCC[C@H](N)C(=O)O; Pra = C#CC[C@H](N)C(=O)O; Ahx = NCCCCCC(=O)O",
  "data": [
    {"compound": "CC(=O)N[C@H]1Cc2cn(nn2)CCCC[C@@H](C(=O)N[C@H]2Cc3cn(nn3)CCCC[C@@H](C(=O)N[C@@H](Cc3ccc(O)cc3)C(N)=O)NC(=O)[C@H](CC(=O)O)NC(=O)[C@H](C(C)C)NC(=O)[C@H](Cc3ccccc3)NC2=O)NC(=O)[C@H](CCC(N)=O)NC(=O)[C@H](CCCNC(=N)N)NC(=O)[C@H](Cc2c[nH]c3ccccc23)NC1=O", "note": "(Ac-[Pra]WRQ[Lys(N3)][Pra]FVD[Lys(N3)]Y-NH2; triazole 1-5, 6-10)", "values": [
      {"measurement": "inhibition", "setting": "[1]", "value": 48, "unit": "%"},
      {"measurement": "inhibition", "setting": "[2]", "value": "Active"},
      {"measurement": "Activity", "setting": "[3]", "value": "Non-Toxic"}
    ]},
    {"compound": "CC(C)[C@@H]1NC(=O)[C@H](Cc2ccccc2)NC(=O)[C@@H](NC(=O)[C@@H]2CCCCn3cc(nn3)C[C@H](NC(=O)CCCCCNC(=O)[C@@H](N)CCCCN)C(=O)N[C@@H](Cc3c[nH]c4ccccc34)C(=O)N[C@@H](CCCNC(=N)N)C(=O)N[C@@H](CCC(N)=O)C(=O)N2)Cc2cn(nn2)CCCC[C@@H](C(=O)N[C@@H](Cc2ccc(O)cc2)C(N)=O)NC(=O)[C@H](CC(=O)O)NC1=O", "note": "(H-K[Ahx][Pra]WRQ[Lys(N3)][Pra]FVD[Lys(N3)]Y-NH2; triazole 3-7, 8-12)", "values": [
      {"measurement": "Activity", "setting": "[4]", "value": "Non-Toxic"},
      {"measurement": "remaining at 24 h", "setting": "[5]", "value": 20, "unit": "%"},
      {"measurement": "inhibition", "setting": "[6]", "value": 25, "unit": "%"},
      {"measurement": "inhibition", "setting": "[7]", "value": "Active"}
    ]},
    {"compound": "CC(C)[C@H](NC(=O)[C@H](Cc1ccccc1)NC(=O)[C@H](C)NC(=O)[C@H](C)NC(=O)[C@H](CCC(N)=O)NC(=O)[C@H](CCCNC(=N)N)NC(=O)[C@@H](N)Cc1c[nH]c2ccccc12)C(=O)N[C@@H](CC(=O)O)C(=O)N[C@@H](CO)C(=O)N[C@@H](Cc1ccc(O)cc1)C(=O)O", "note": "(H-WRQAAFVDSY-OH)", "values": [
      {"measurement": "Activity", "setting": "[4]", "value": "Non-Toxic"},
      {"measurement": "half-life at 1200 µM", "setting": "[8]", "value": 2.27, "unit": "min"},
      {"measurement": "inhibition", "setting": "[9]", "value": "Dose-Dependent Effect"},
      {"measurement": "inhibition", "setting": "[10]", "value": 14, "unit": "%"},
      {"measurement": "inhibition", "setting": "[11]", "value": "inactive"},
      {"measurement": "Activity", "setting": "[12]", "value": "Non-Toxic"},
      {"measurement": "inhibition", "setting": "[13]", "value": "inactive"},
      {"measurement": "inhibition", "setting": "[14]", "value": "Active"},
      {"measurement": "inhibition", "setting": "[6]", "value": 35, "unit": "%"},
      {"measurement": "inhibition at 100 µM", "setting": "[15]", "value": 17, "unit": "%"}
    ]}
  ]
}
